From ChEMBL document CHEMBL2390905, “Recent development of potent analogues of oxazolidinone antibacterial agents” (Bioorg Med Chem, 2013)
pKi: −log10 of the molar value. In brackets after ≈: the same amount, converted by molar mass.

Columns and labels:
Staphylococcus aureus [1] = test: Antibacterial activity against methicillin-resistant Staphylococcus aureus assessed as growth inhibition; assay type: functional
Enterococcus faecalis [2] = test: Antibacterial activity against Enterococcus faecalis assessed as growth inhibition; assay type: functional
[3] = tested on: Staphylococcus epidermidis; test: Antibacterial activity against Staphylococcus epidermidis assessed as growth inhibition; assay type: functional
Enterococcus faecium [4] = test: Antibacterial activity against Enterococcus faecium ATCC 700221 assessed as growth inhibition after 16 to 20 hrs by broth microdilution method; assay type: functional
Enterococcus faecalis [5] = test: Antibacterial activity against Enterococcus faecalis ATCC 29212 assessed as growth inhibition after 16 to 20 hrs by broth microdilution method; assay type: functional
Staphylococcus aureus [6] = test: Antibacterial activity against methicillin-sensitive Staphylococcus aureus ATCC 29213 assessed as growth inhibition after 16 to 20 hrs by broth microdilution method; assay type: functional
Staphylococcus aureus [7] = test: Antibacterial activity against methicillin-resistant Staphylococcus aureus ATCC 33591 assessed as growth inhibition after 16 to 20 hrs by broth microdilution method; assay type: functional
Staphylococcus aureus [8] = test: Antibacterial activity against linezolid-resistant Staphylococcus aureus PTCC 100 assessed as growth inhibition after 16 to 20 hrs by broth microdilution method; assay type: functional
[9] = target: T1, Amine oxidase [flavin-containing] A (Homo sapiens, UniProt P21397); test: Inhibition of MAO-A (unknown origin) by luciferase […] assay
T1 sequence (P21397 whole entry): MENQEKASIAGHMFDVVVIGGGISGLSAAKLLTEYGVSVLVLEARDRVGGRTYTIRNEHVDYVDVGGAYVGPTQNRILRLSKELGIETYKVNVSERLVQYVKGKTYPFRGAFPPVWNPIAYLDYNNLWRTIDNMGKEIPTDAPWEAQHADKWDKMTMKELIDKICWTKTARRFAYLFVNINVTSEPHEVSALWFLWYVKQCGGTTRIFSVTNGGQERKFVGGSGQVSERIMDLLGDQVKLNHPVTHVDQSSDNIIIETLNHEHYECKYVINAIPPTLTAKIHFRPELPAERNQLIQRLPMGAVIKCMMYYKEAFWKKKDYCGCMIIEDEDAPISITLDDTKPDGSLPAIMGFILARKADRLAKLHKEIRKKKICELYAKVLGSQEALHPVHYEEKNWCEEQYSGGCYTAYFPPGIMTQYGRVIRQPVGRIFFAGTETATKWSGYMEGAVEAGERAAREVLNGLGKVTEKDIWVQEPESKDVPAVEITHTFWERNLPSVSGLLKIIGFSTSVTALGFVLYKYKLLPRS

Haemophilus influenzae [10] = test: Ratio of tedizolid MIC to compound MIC for Haemophilus influenzae; assay type: functional
Enterococcus [11] = test: Ratio of tedizolid MIC to compound MIC for Enterococcus spp; assay type: functional
Enterococcus [12] = test: Ratio of linezolid MIC to compound MIC for Enterococcus spp; assay type: functional
Staphylococcus aureus [13] = test: Ratio of tedizolid MIC to compound MIC for methicillin-resistant Staphylococcus aureus; assay type: functional
Haemophilus influenzae [14] = test: Ratio of linezolid MIC to compound MIC for Haemophilus influenzae; assay type: functional
Streptococcus pneumoniae [15] = test: Ratio of linezolid MIC to compound MIC for Streptococcus pneumoniae; assay type: functional
Streptococcus pneumoniae [16] = test: Ratio of tedizolid MIC to compound MIC for Streptococcus pneumoniae; assay type: functional
Staphylococcus aureus [17] = test: Ratio of linezolid MIC to compound MIC for methicillin-resistant Staphylococcus aureus; assay type: functional
Staphylococcus aureus [18] = test: Ratio of linezolid MIC to compound MIC for multidrug-resistant Staphylococcus aureus; assay type: functional
[19] = tested on: Staphylococcus epidermidis; test: Ratio of linezolid MIC to compound MIC for multidrug-resistant Staphylococcus epidermidis; assay type: functional
Enterococcus faecalis [20] = test: Ratio of linezolid MIC to compound MIC for multidrug-resistant Enterococcus faecalis; assay type: functional
Enterococcus faecium [21] = test: Ratio of linezolid MIC to compound MIC for multidrug-resistant Enterococcus faecium; assay type: functional
Escherichia coli = test: Ratio of linezolid MIC to compound MIC for Escherichia coli; assay type: functional
[22] = tested on: Mycobacterium tuberculosis; test: Ratio of mefloquine MIC to compound MIC for Mycobacterium tuberculosis H37Rv; assay type: functional

With `CC(=O)NC[C@H]1CN(c2ccc(N3CCN(C(=O)CCl)CC3)c(F)c2)C(=O)O1` as the compound, how does the MIC (Staphylococcus aureus [1]) read?
The MIC was 1 µg/mL (≈ 2.42 µM).

And the MIC (Enterococcus faecalis [2])?
Its MIC is 0.5 µg/mL (≈ 1.21 µM).

And the MIC [3]?
The MIC was 1 µg/mL (≈ 2.42 µM).

`CC(=O)NC[C@H]1CN(c2ccc(N3CCN(C(=O)C(Cl)Cl)CC3)c(F)c2)C(=O)O1` was tested. Which MIC (Staphylococcus aureus [1]) did it give?
Its MIC is 1 µg/mL (≈ 2.24 µM).

And the MIC (Enterococcus faecalis [2])?
The MIC was 0.5 µg/mL (≈ 1.12 µM).

What about the MIC [3] of the same compound?
The MIC was 1 µg/mL (≈ 2.24 µM).

With `O=C(/C=C/c1ccccc1)NC[C@H]1CN(c2cc(F)c(N3CCN(C(=O)CNC(=O)c4cn5cccnc5n4)CC3)c(F)c2)C(=O)O1` as the compound, how does the MIC (Enterococcus faecium [4]) read?
The MIC was 0.25 µg/mL (≈ 0.388 µM).

And the MIC (Enterococcus faecalis [5])?
Its MIC is 0.125 µg/mL (≈ 0.194 µM).

What about the MIC (Staphylococcus aureus [6]) of the same compound?
The MIC was 0.125 µg/mL (≈ 0.194 µM).

What about the MIC (Staphylococcus aureus [7]) of the same compound?
The MIC was 0.125 µg/mL (≈ 0.194 µM).

And the MIC (Staphylococcus aureus [8])?
The MIC was 1 µg/mL (≈ 1.55 µM).

With `CC(=O)NC[C@H]1CN(c2ccc(N3C=NN(C)CC3)c(F)c2)C(=O)O1` as the compound, how does the pKi [9] read?
The pKi was 5.40.

With `CN1CCN(c2ccc(N3C[C@H](COC(N)=S)OC3=O)cc2F)C=N1` as the compound, how does the pKi [9] read?
Its pKi is 5.40.

What does the source list for `O=C1O[C@@H](CO)CN1c1ccc(-c2ccc(N3CCOC3=O)nc2)c(F)c1`?
Ratio (Haemophilus influenzae [10]): 2; Ratio (Enterococcus [11]): 2; Ratio (Enterococcus [12]): 8; Ratio (Staphylococcus aureus [13]): 2; Ratio (Haemophilus influenzae [14]): 8; Ratio (Streptococcus pneumoniae [15]): 8; Ratio (Streptococcus pneumoniae [16]): 2; Ratio (Staphylococcus aureus [17]): 8

Which Ratio (Staphylococcus aureus [18]) does the source give for `CC(=O)NC[C@H]1CN(c2ccc(-c3ccc(C(=O)NN)cc3)c(F)c2)C(=O)O1` here?
Its Ratio is 2.

And the Ratio [19]?
The Ratio was 2.

And the Ratio (Haemophilus influenzae [14])?
Its Ratio is 2.

What about the Ratio (Enterococcus faecalis [20]) of the same compound?
The Ratio was 2.

And the Ratio (Enterococcus faecium [21])?
Its Ratio is 2.

What about the Ratio (Escherichia coli) of the same compound?
The Ratio was 2.

Which Ratio [22] does the source give for `CCOC(=O)c1cc(COc2cc(C(F)(F)F)nc3c(C(F)(F)F)cccc23)on1` here?
The Ratio was 14.4.

With `CC(=O)NC[C@H]1CN(c2ccc(N3CCOCC3)c(F)c2)C(=O)O1` [LINEZOLID] as the compound, how does the pKi [9] read?
Its pKi is 5.10.

`Cn1nnc(-c2ccc(-c3ccc(N4C[C@H](CO)OC4=O)cc3F)cn2)n1` [TEDIZOLID] was tested. Which pKi [9] did it give?
Its pKi is over 5.70.
